# Assay results from ChEMBL document CHEMBL1149627, “Erythrocarpines A-E, new cytotoxic limonoids from Chisocheton erythrocarpus” (Bioorg Med Chem, 2007).
# Test system: P388
# Assay: Cytotoxicity against mouse P388 cells by MTT assay
# Assay type: functional, cell-based
row,SMILES,IC50 [µg/mL]
1,COC(=O)C[C@H]1C(C)(C)[C@H](OC(=O)c2ccccc2)[C@@H]2C=C3C4=CC(=O)O[C@@H](c5ccoc5)[C@]4(C)CC[C@@H]3[C@@]1(C)C2=O [ERYTHROCARPINE A],2
2,COC(=O)C[C@H]1C(C)(C)[C@H](OC(=O)/C=C/c2ccccc2)[C@@H]2C=C3[C@H](CC[C@@]4(C)[C@H](c5ccoc5)OC(=O)C[C@@]34O)[C@@]1(C)C2=O [ERYTHROCARPINE C],9.9
3,COC(=O)C[C@H]1[C@@]2(C)CO[C@]3(O)[C@@H](C=C4[C@H](CC[C@@]5(C)[C@H](c6ccoc6)OC(=O)C[C@@]45O)[C@]13C)[C@H]2OC(=O)/C=C/c1ccccc1 [ERYTHROCARPINE E],16
4,COC(=O)C[C@H]1[C@@]2(C)CO[C@]3(O)[C@@H](C=C4C5=CC(=O)O[C@@H](c6ccoc6)[C@]5(C)CC[C@@H]4[C@]13C)[C@H]2OC(=O)/C=C/c1ccccc1 [ERYTHROCARPINE D],10
5,COC(=O)C[C@H]1C(C)(C)[C@H](OC(=O)c2ccccc2)[C@@H]2C=C3[C@H](CC[C@@]4(C)[C@H](c5ccoc5)OC(=O)C[C@@]34O)[C@@]1(C)C2=O [ERYTHROCARPINE B],6
6,CO[C@@]12[C@H](COC(N)=O)C3=C(C(=O)C(C)=C(N)C3=O)N1C[C@@H]1N[C@@H]12 [MITOMYCIN],0.15
